Data on three compounds can be found in article PMC4845012, “Unique behavior of Trypanosoma cruzi mevalonate kinase: A conserved glycosomal enzyme involved in host cell invasion and signaling” (Scientific Reports, 2016).

“And” between values parts separate entries of the source, which are not always exact repeats. Equal entries are not always repeated.

Test [1] has as its target T1, rTcMVK (Trypanosoma cruzi, UniProt A0A165UDJ0).
T1 construct: gene MVK; N-terminal His6 tag (pET-28a, BamHI/HindIII), E. coli BL21; native 34 kDa; active dimer fraction from gel filtration
T1 sequence (A0A165UDJ0 43-364 limits assumed): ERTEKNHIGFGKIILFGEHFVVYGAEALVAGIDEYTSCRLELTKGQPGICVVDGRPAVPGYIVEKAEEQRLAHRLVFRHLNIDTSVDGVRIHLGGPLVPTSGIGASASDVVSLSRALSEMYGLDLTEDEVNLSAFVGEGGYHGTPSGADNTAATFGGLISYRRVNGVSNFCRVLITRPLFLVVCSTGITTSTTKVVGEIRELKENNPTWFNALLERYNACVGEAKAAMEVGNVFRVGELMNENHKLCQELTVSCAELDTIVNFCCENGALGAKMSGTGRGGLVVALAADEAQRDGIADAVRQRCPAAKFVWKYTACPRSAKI
The test can be described thus: coupled pyruvate kinase / lactate dehydrogenase assay, NADH at […] nm. The class given is biochemical. To be noted: MgCl2 […], glycine pH […] °C, dimer.

Test [2] deals with recombinant Trypanosoma cruzi mevalonate kinase (rTcMVK) (Trypanosoma cruzi (G strain)). The test can be described thus: SEC; Superdex 200 High Load 16/60 prep-grade, glycine buffer pH 9.0 with 0.15 M NaCl, after Ni-NTA; separates the oligomerization states of rTcMVK.

In the case of `Nc1ncnc2c1ncn2[C@@H]1O[C@H](COP(=O)(O)OP(=O)(O)OP(=O)(O)O)[C@@H](O)[C@H]1O` [ATP], the “coupled pyruvate kinase / lactate dehydrogenase assay, NADH at 340 nm” value in test [1] (mevalonate […], blank without ATP) is recorded as “Blank assays were performed in the absence of ATP”.

In general, stoichiometry N refers to a count of units in the complex or per binding partner. In the case of “recombinant Trypanosoma cruzi mevalonate kinase (rTcMVK) (enzyme)”, the stoichiometry N in test [2] was 4 and 2.

On to `CC(O)(CCO)CC(=O)O` (racemic) [(RS)-mevalonic acid], for which, in test [1] (ATP […], racemic mevalonate […] from hydrolysed lactone), the “coupled pyruvate kinase / lactate dehydrogenase assay, NADH at 340 nm” value was “In vitro assays using synthetic mevalonic acid confirmed enzymatic activity of recombinant TcMVK”.
